# Laboratory results published in PMC5761330 (ACS chemical biology, 2017).
# Experiments:
# CMV-Luc = CMV-Luc counter-screen in HEK293 cells; format: cell-based; settings: increasing concentrations
# E11.5 kidney rudiments = assay: Embryonic kidney organ culture, branching morphogenesis; set-up: species or system mouse; settings: 48 h, highest dose
# [1] = test system: 22Rv1, PC-3 and SK-OV-3 cells; assay: Phospho-histone H3 Western blot, Pax2 negative cancer cell lines; format: cell-based; settings: increasing amounts
# E11.5 lung rudiments = assay: Embryonic lung organ culture, branching morphogenesis; set-up: species or system mouse; settings: 48 h, increasing concentrations
# [2] = test system: BRE-Luc (P-Smad mediated transactivation); assay: BMP dependent luciferase reporter; format: cell-based; settings: HEK293 cells, in the presence of BMP4, increasing amounts
# [3] = test system: 22Rv1, PC-3 and SK-OV-3 cells; assay: Cell viability; format: cell-based; settings: 48 h, 12.5 and 25 µM, Pax2 negative cells
# Pax5 = Pax5 (Homo sapiens, UniProt Q02548); assay: PRS4-Luc reporter activation by Pax5 in HEK293 cells; format: cell-based; settings: dose response
# Pax8 = Pax8 (Homo sapiens, UniProt Q06710); assay: PRS4-Luc reporter activation by Pax8 in HEK293 cells; format: cell-based; settings: dose response
# kidney organ cultures = assay: Pax2 target gene expression in kidney organ cultures; set-up: species or system mouse; settings: kidney organ culture, 48 h
# [4] = test system: RCC111, TOV112D and ES-2 cells; assay: Phospho-histone H3 Western blot, Pax2 positive cancer cell lines; format: cell-based; settings: increasing amounts
# [5] = target: recombinant Pax2 paired domain (amino acids 1–170) / PRS oligo (Mus musculus, UniProt P32114); assay: Electrophoretic mobility shift assay; format: biochemical; settings: EMSA
# [6] = test system: RCC111, TOV112D and ES-2 cells; assay: Cell viability; format: cell-based; settings: 48 h, 12.5 and 25 µM, Pax2 positive cells
# Pax2 = Pax2 (Mus musculus, UniProt P32114); assay: PRS4-EGFP reporter, Western blot of EGFP; format: cell-based; settings: PRS4-EGFP cells, increasing concentrations
# Sequence of Pax2 (P32114 1-391 isoform P32114-2): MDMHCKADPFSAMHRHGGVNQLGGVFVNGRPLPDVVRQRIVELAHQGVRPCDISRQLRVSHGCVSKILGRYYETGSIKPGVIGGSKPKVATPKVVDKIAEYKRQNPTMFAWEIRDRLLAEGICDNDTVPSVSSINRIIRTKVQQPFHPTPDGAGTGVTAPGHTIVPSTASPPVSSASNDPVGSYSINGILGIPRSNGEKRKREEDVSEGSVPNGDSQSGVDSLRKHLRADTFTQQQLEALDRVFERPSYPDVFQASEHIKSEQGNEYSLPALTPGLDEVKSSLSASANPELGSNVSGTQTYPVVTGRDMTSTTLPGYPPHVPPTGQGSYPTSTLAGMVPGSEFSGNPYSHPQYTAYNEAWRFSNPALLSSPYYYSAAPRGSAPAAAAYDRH
# Sequence of recombinant Pax2 paired domain (amino acids 1–170) / PRS oligo (P32114 1-170): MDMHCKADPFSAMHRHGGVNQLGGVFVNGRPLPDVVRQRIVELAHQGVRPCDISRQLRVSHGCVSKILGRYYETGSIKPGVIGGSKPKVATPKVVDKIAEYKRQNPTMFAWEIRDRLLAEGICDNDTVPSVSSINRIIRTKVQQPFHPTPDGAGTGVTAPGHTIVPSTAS
# Sequence of Pax8 (Q06710 whole entry, species assumed): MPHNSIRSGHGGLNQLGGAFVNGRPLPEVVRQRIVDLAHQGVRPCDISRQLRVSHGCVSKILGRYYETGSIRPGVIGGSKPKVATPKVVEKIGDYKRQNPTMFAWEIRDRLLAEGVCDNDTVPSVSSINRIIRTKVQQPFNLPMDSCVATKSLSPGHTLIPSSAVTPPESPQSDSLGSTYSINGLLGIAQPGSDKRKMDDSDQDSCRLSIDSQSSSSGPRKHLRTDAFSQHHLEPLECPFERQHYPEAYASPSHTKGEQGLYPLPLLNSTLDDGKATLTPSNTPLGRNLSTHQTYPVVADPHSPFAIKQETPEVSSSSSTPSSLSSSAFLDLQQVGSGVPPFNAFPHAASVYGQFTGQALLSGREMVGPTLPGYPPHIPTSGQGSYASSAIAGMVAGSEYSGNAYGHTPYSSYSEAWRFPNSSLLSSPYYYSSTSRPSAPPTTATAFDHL
# Sequence of Pax5 (Q02548 whole entry, species assumed): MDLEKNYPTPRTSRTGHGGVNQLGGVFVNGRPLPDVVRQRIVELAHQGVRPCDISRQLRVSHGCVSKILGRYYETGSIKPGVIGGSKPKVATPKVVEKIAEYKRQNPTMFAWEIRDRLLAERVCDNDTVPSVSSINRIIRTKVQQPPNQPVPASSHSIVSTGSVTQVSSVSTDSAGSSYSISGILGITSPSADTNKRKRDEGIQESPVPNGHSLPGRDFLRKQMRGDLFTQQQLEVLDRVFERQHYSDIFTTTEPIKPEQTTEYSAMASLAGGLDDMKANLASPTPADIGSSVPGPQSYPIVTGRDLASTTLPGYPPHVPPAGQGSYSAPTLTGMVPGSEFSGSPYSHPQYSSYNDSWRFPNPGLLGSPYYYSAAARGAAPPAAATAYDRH
compound,measurement,setting,value
COc1ccccc1C(=O)Nc1ccc(C(=O)Nc2ccccc2C(=O)O)cc1 [EG1],Inhibition of CMV-Luc in the counter-screen,CMV-Luc,no inhibitory effect
same,Inhibition of branching morphogenesis,E11.5 kidney rudiments,up to 75%
same,Levels of phospho–histone H3 (P–H3),[1],unchanged
same,Effect on branching morphogenesis,E11.5 lung rudiments,no change in branching morphogenesis
same,Effect on BRE-Luc reporter activity,[2],unaffected
same,Cell viability,[3],none of the Pax2 negative cells were affected
same,Inhibition of PRS4-Luc activation by Pax5,Pax5,able to inhibit
same,Inhibition of PRS4-Luc activation by Pax8,Pax8,able to inhibit
same,"Cited1 and HNF4a expression, qRT-PCR",kidney organ cultures,clear reduction
same,"Cited1 expression, whole mount in situ hybridization",kidney organ cultures,dramatic reduction in expression levels
same,"FoxD1, Msx1 and Twist2 (stromal genes) expression, qRT-PCR",kidney organ cultures,increased levels
same,Levels of phospho–histone H3 (P–H3),[4],decreased levels of P–H3
same,Inhibition of Pax2-DNA binding,[5]; 10 µM,Significant inhibition
same,Inhibition of Pax2-DNA binding,[5]; 100 µM,near complete inhibition
same,Cell viability,[6],significant decrease in cell viability
same,Inhibition of Pax2 mediated expression of EGFP,Pax2,capable of inhibiting Pax2 mediated expression of EGFP
